From patent US20050119318A1, “Inhibitors of HCV replication” (priority 2003, published 2005)

What was measured:
HCV replicon = HCV replicon FRET assay (HCV RdRp cell line); assay type: cell-based; settings: Hepatitis C virus, read-out: RdRp Inhibition Range, EC50
Description: FRET Assay Preparation. To perform the HCV FRET screening assay, 96-well cell culture plates were used. The FRET peptide (Anaspec, Inc.) (Taliani et al., Anal. Biochem. 240:60-67 (1996), expressly incorporated by reference in its entirety) contains a fluorescence donor, EDANS, near one end of the peptide and an acceptor, DABCYL, near the other end. The fluorescence of the peptide is quenched by […] resonance energy transfer (RET) between the donor and the acceptor, but as the NS3 protease cleaves the peptide the products are released from RET quenching and the fluorescence of the donor becomes apparent. […]
FRET Assay and Cytotoxicity Assay. […] After reading in a Cytoflour 4000 instrument (PE Biosystems), plates were rinsed with PBS and then used for FRET assay by the addition of 30 ul of the FRET peptide assay reagent described above (FRET Assay Preparation) per well. The plate was then placed into the Cytoflour 4000 instrument which had been set to 340 excite/490 emission, automatic mode for 20 cycles and the plate read in a kinetic mode. Typically, the signal to noise using an endpoint analysis after the reads was at least three-fold.
Compound analysis was determined by quantification of the relative HCV replicon inhibition and the relative cytotoxicity values. […]

[1] = target: T1, HCV NS5B RdRp genotype 1b (Hepatitis C virus genotype 1b, UniProt Q9WMX2); assay: HCV NS5B RdRp enzyme assay; assay type: biochemical; settings: HCV RdRp genotype 1b enzyme; read-out: RdRp Inhibition Range, IC50
T1 construct: The protein was expressed with an 18 amino acid C-terminal truncation to enhance the solubility; made in house; host or cells: E. coli BL21(DE3)
Protocol: HCV NS5B RdRp cloning, expression, and purification. The cDNA encoding the NS5B protein of HCV, genotype 1b, was cloned into the pET21a expression vector. The protein was expressed with an 18 amino acid C-terminal truncation to enhance the solubility. The E. coli competent cell line BL21(DE3) was used for expression of the protein. Cultures were grown at 37° C. for ˜4 hours until the cultures reached an optical density of 2.0 at 600 nm. The cultures were cooled to 20° C. and induced with 1 mM IPTG. Fresh ampicillin was added to a final concentration of 50 μg/ml and the cells were grown overnight at 20° C.
Cell pellets (3 L) were lysed for purification to yield 15-24 mgs of purified NS5B. The lysis buffer consisted of 20 mM Tris-HCl, pH 7.4, 500 mM NaCl, 0.5% triton X-100, 1 mM DTT, 1 mM EDTA, 20% glycerol, 0.5 mg/ml lysozyme, 10 mM MgCl2, 15 ug/ml deoxyribonuclease I, and Complete TM protease inhibitor tablets (Roche). After addition of the lysis buffer, frozen cell pellets were resuspended using a tissue homogenizer. To reduce the viscosity of the sample, aliquots of the lysate were sonicated on ice using a microtip attached to a Branson sonicator. The sonicated lysate was centrifuged at 100,000×g for 1 hr at 4° C. and filtered through a 0.2 μm filter unit (Corning). […]
HCV NS5B RdRp enzyme assay. […] Plates were read on a Packard Top Count NXT. […]

T1 sequence (Q9WMX2 2420-2992): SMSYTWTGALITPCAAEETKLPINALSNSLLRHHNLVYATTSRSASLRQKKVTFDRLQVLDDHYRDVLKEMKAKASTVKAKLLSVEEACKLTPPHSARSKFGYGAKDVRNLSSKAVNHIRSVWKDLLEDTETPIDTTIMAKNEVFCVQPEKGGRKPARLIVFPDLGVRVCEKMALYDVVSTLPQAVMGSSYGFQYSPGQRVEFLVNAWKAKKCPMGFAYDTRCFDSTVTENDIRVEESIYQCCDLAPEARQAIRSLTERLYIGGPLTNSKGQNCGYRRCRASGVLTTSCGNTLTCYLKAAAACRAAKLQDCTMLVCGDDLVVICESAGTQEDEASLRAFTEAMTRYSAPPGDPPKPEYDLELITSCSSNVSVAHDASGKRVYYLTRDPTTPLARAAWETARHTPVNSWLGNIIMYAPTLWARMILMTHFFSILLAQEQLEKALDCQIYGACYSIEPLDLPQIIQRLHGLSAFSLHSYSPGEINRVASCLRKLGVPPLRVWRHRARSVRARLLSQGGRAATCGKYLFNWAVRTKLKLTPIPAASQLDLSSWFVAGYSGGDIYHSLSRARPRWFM

SMILES	EC50 (HCV replicon) [nM]	IC50 [1] [nM]
Cn1c(-c2ccoc2)c(C2CCCCC2)c2ccc(C(=O)Nc3nnn[nH]3)cc21 [Compound 1]	< 5000	100 to 1000
Cn1c(-c2ccoc2)c(C2CCCCC2)c2ccc(-c3nnn[nH]3)cc21 [Compound 2]	5000 to 10000	100 to 1000
